Measured values as given in PubChem BioAssay AID2253 (Southern Research Specialized Biocontainment Screening …, 2010).

test system: THP-1 viability, CellTiter-Glo luminescence, 72 h; assay: human monocytic cell viability reduction – S. typhimurium screen hits, cytotoxicity control for Salmonella PhoP regulon inhibitors, dose response (AID 2253)

Question: O=[N+]([O-])c1ccc(Sc2nc3ccccc3o2)c([N+](=O)[O-])c1 was tested. Which EC50 did it give?
Answer: 1.94 µM

Question: Cc1ccc(-n2sc3ccccc3c2=O)cc1S(=O)(=O)N1CCCCC1 was tested. Which EC50 did it give?
Answer: 2.75 µM

Question: Which EC50 does the source give for CC(C)c1ccc(C2C3CSCC=C3C(C#N)=C(N)C2(C#N)C#N)cc1 (stereo not drawn) here?
Answer: 39.7 µM

Question: CN(C)C=NC(=O)c1[nH]c2ccc(Cl)cc2c1-c1ccccc1 was tested. Which EC50 did it give?
Answer: 13.6 µM

Question: With Cc1cc(-c2csc(N)n2)c(C)n1-c1ccccc1 as the compound, how does the EC50 read?
Answer: 16.9 µM

Question: Which EC50 does the source give for O=[N+]([O-])c1cc(/C=N/Nc2nc3ccccc3[nH]2)c(O)cc1O here?
Answer: 1.21 µM

Question: Which EC50 does the source give for CN1CCN(C(c2ccc(Br)cc2)c2cc(Cl)c3cccnc3c2O)CC1 (stereo not drawn) here?
Answer: 3.87 µM

Question: For COc1cc(NC(=O)Nc2cccc(Cl)c2)c(OC)cc1NC(=O)CN1CCCCC1, which EC50 is on record?
Answer: 15.5 µM

Question: With O=C1C(Nc2ccccc2)=C/C(=N/S(=O)(=O)c2cccs2)c2ccccc21 as the compound, how does the EC50 read?
Answer: 1.5 µM

Question: For CCCc1cnc(NCCNCC(O)COc2ccc(Cl)c(Cl)c2)nc1 (stereo not drawn), which EC50 is on record?
Answer: 11.8 µM

Question: Which EC50 does the source give for Nc1nc(F)nc2c1ncn2[C@@H]1O[C@H](CO)[C@@H](O)[C@H]1O here?
Answer: 0.3 µM

Question: For O=C1OC(/C(=C\Nc2ccc(F)cc2F)[N+](=O)[O-])c2ccccc21 (stereo not drawn), which EC50 is on record?
Answer: 31.7 µM

Question: Which EC50 does the source give for CN1CCc2c(sc(NC(=O)c3ccc([N+](=O)[O-])o3)c2C(N)=O)C1 here?
Answer: 0.61 µM

Question: CCCCCCCCCCOC(=O)Cn1c(COc2ccc(C)cc2)[n+](C)c2ccccc21 was tested. Which EC50 did it give?
Answer: 3.37 µM

Question: Which EC50 does the source give for Oc1ccc(CNc2ccccc2F)c2cccnc12 here?
Answer: 4.93 µM

Question: How did the EC50 turn out when C/C(CC(=O)Nc1ccc(Cl)c(C(F)(F)F)c1)=N\NC(=O)c1ccccc1O was run?
Answer: 20.4 µM

Question: For COc1ccc(Nc2nc(-c3c[nH]c4ccccc34)cs2)cc1, which EC50 is on record?
Answer: 15.6 µM

Question: COc1cc(C(=O)Oc2c(CN3CCOCC3)cc(Cl)c3cccnc23)cc(OC)c1OC was tested. Which EC50 did it give?
Answer: 4.46 µM

Question: How did the EC50 turn out when O=C(NNc1nc(-c2ccccc2)cs1)c1ccccc1 was run?
Answer: 26.1 µM

Question: With COc1cccc(/C=N/NC(=O)c2ccc(-c3ccccc3)cc2)c1O as the compound, how does the EC50 read?
Answer: 1.08 µM

Question: How did the EC50 turn out when Oc1ccc(/C=N/Nc2nccnc2Cl)c(O)c1 was run?
Answer: 1.39 µM

Question: Which EC50 does the source give for CCOC(=O)COc1ccccc1/C=C\[N+](=O)[O-] here?
Answer: 2.85 µM

Question: Which EC50 does the source give for Cc1ccc(-c2csc(N=C(N)N)n2)c(C)c1 here?
Answer: 23.5 µM

Question: Which EC50 does the source give for Cc1cc(O)ccc1Nc1nc2ccccc2nc1Nc1ccc(O)cc1C here?
Answer: 24.4 µM

Question: For CN(CCO)c1cc(Sc2nc3ccccc3s2)c2nonc2c1[N+](=O)[O-], which EC50 is on record?
Answer: 15.8 µM

Question: Which EC50 does the source give for Cc1cccc(Nc2cc(C)c3c(O)cccc3n2)c1C here?
Answer: 8.98 µM

Question: How did the EC50 turn out when c1ccc2c(NC3=NCCS3)cccc2c1 was run?
Answer: 31.8 µM

Question: O=c1[nH]c(CSc2ncc(-c3ccc(F)cc3)n2Cc2ccco2)nc2ccccc12 was tested. Which EC50 did it give?
Answer: 47 µM

Question: With O=S(=O)(Nc1cc(Sc2cccc3cccnc23)c(O)c2ccccc12)c1ccc(F)cc1 as the compound, how does the EC50 read?
Answer: 2.82 µM

Question: For Oc1ccccc1CN1CCCN(Cc2ccccc2O)C1, which EC50 is on record?
Answer: 23.8 µM

Question: O=C1c2ccccc2NC(c2ccc(-c3cccc(Cl)c3)o2)N1O (stereo not drawn) was tested. Which EC50 did it give?
Answer: 24.6 µM

Question: CC(C(=O)NC1CCS(=O)(=O)C1)N1C(=O)/C(=C/c2ccc(Cl)cc2)SC1=S (stereo not drawn) was tested. Which EC50 did it give?
Answer: 48.9 µM

Question: With CCCCCCNC(=O)c1cn(CC)c2cc(N3CCN(C)CC3)c(F)cc2c1=O as the compound, how does the EC50 read?
Answer: 16.1 µM

Question: Which EC50 does the source give for COc1ccc(CNC[C@@H](CCCCN(C)Cc2ccc(OC)cc2)N2C[C@H](c3ccccc3)N(CCc3ccc(Cl)c(Cl)c3)C(=O)C2=O)cc1 here?
Answer: 3.93 µM

Question: With Clc1ccc(Nc2ncnc3c2cnn3-c2ccccc2)cc1 as the compound, how does the EC50 read?
Answer: 30.1 µM

Question: How did the EC50 turn out when CCCCNCCCOc1cccc(Cl)c1Cl was run?
Answer: 29.2 µM

Question: CCc1ccc(Nc2nc(N)nc(CSc3nc4ccccc4s3)n2)cc1 was tested. Which EC50 did it give?
Answer: 33.8 µM

Question: How did the EC50 turn out when Cc1ccc(S(=O)(=O)/N=C2/C=C(Sc3ncn[nH]3)C(=O)c3ccccc32)cc1 was run?
Answer: 2.13 µM

Question: Which EC50 does the source give for Oc1c(C(Nc2cccc(C(F)(F)F)c2)c2cccnc2)ccc2cccnc12 (stereo not drawn) here?
Answer: 7.65 µM

Question: CCCC(=O)NC(c1ccc(Cl)cc1)c1ccc2cccnc2c1O (stereo not drawn) was tested. Which EC50 did it give?
Answer: 0.38 µM

Question: Oc1c(C(c2ccccn2)N2CCOCC2)ccc2cccnc12 (stereo not drawn) was tested. Which EC50 did it give?
Answer: 13.8 µM

Question: With CN(C)CC(C(=O)c1ccccc1)c1ccccc1 (stereo not drawn) as the compound, how does the EC50 read?
Answer: 4.94 µM

Question: For Oc1cccc(/C=N/Nc2ccc(Cl)nn2)c1O, which EC50 is on record?
Answer: 0.66 µM

Question: Which EC50 does the source give for OCCCNc1nc(-c2ccc(Cl)cc2)nnc1-c1ccc(Br)cc1 here?
Answer: 19.8 µM

Question: With Cc1ccc2cccnc2c1NC(=S)NC(=O)c1ccccc1 as the compound, how does the EC50 read?
Answer: 25.2 µM

Question: How did the EC50 turn out when Cc1ccc(NC(=S)NC(NC(=O)c2ccco2)C(Cl)(Cl)Cl)cc1 (stereo not drawn) was run?
Answer: 19.6 µM

Question: O=C1C=C(N2CCOCC2)c2ccccc2C1=O was tested. Which EC50 did it give?
Answer: 6.88 µM

Question: With Cc1ccc2nc(NNC(=O)c3ccc(S(=O)(=O)N4CCc5ccccc5C4)cc3)sc2c1 as the compound, how does the EC50 read?
Answer: 1.83 µM

Question: How did the EC50 turn out when COc1ccccc1N1CCN(c2ccc(-c3ccccc3)nn2)CC1 was run?
Answer: 2.61 µM

Question: For C#CC(=O)N(c1cc(OC)ccc1OC)C(C(=O)NC1CCCC1)c1cccs1 (stereo not drawn), which EC50 is on record?
Answer: 1.42 µM

Question: With CN(c1ccccc1)S(=O)(=O)c1cc(C(=O)Nc2nc3ccccc3[nH]2)ccc1Cl as the compound, how does the EC50 read?
Answer: 24.1 µM

Question: CNC[C@H](CC1CCCCC1)NC[C@H](Cc1ccccc1)NCCC12CC3CC(CC(C3)C1)C2 was tested. Which EC50 did it give?
Answer: 3.28 µM

Question: For Cc1cc(C(=O)N/N=C/c2ccc(O)c(O)c2O)c(C)n1-c1ccccc1, which EC50 is on record?
Answer: 4.48 µM

Question: How did the EC50 turn out when Nc1nonc1C(=O)NCCN=Cc1cc(Cc2ccccc2)cc(Br)c1O was run?
Answer: 37.8 µM

Question: For N#C/C(=C\c1ccc(F)c(F)c1)C(=O)NC1CCCCC1, which EC50 is on record?
Answer: 46.6 µM

Question: With C/C(=N\N=C(N)N)c1ccc(Cl)c(Cl)c1 as the compound, how does the EC50 read?
Answer: 11.2 µM

Question: With CNc1nc(NCc2ccccc2)c2ccccc2n1 as the compound, how does the EC50 read?
Answer: 10 µM

Question: Which EC50 does the source give for CC1CCC(C(C)C)C(OC(=O)Cn2c(-c3ccc(Cl)cc3)[n+](C)c3ccccc32)C1 (stereo not drawn) here?
Answer: 2.13 µM

Question: For Oc1cccc(Nc2c3ccccc3nc3ccccc23)c1, which EC50 is on record?
Answer: 12 µM

Question: With COc1ccc(Nc2sc(C(=O)Nc3cccc(Cl)c3)c(N)c2C(=O)Nc2ccccc2OC)cc1 as the compound, how does the EC50 read?
Answer: 25.7 µM

Question: COc1cnc(-c2ccccn2)[nH]c1=O was tested. Which EC50 did it give?
Answer: 25.6 µM

Question: How did the EC50 turn out when NCCc1c(-c2ccccc2)n(-c2ccccc2)c2ccccc12 was run?
Answer: 4.76 µM

Question: Which EC50 does the source give for Cc1cc(C)cc(OC(=O)CS(=O)c2ccc(C(F)(F)F)cc2[N+](=O)[O-])c1 (stereo not drawn) here?
Answer: 5.98 µM

Question: Which EC50 does the source give for Cc1cc(/C=N/n2c(COc3ccccc3C)nc3ccccc3c2=O)c(O)c([N+](=O)[O-])c1 here?
Answer: 2.52 µM

Question: Nc1ccc2c(c1)C(=O)C(=O)c1ccccc1-2 was tested. Which EC50 did it give?
Answer: 2.23 µM

Question: Nc1cc2nsnc2cc1Br was tested. Which EC50 did it give?
Answer: 7.44 µM

Question: How did the EC50 turn out when Oc1ccc(Cl)cc1Cc1cc(Cl)ccc1O was run?
Answer: 19.6 µM

Question: For O=C(N/N=C/c1sc2ccccc2c1O)c1cccc2ccccc12, which EC50 is on record?
Answer: 3.51 µM

Question: Which EC50 does the source give for Cc1c(C(=O)Nc2cccc(Cl)c2)c2ccccn2c1CCc1ccncc1 here?
Answer: 24.7 µM

Question: Which EC50 does the source give for O=C1/C(=C/c2ccccc2)NC(=S)N1C(c1ccccc1)c1ccccc1 here?
Answer: 4.48 µM

Question: Which EC50 does the source give for COc1cccc(C(=O)Oc2c(CN3CCOCC3)cc(Cl)c3cccnc23)c1 here?
Answer: 7.11 µM

Question: NC1=NC(=Nc2ccc(Br)cc2)c2ccccc21 was tested. Which EC50 did it give?
Answer: 25.8 µM

Question: With O=[N+]([O-])/C=C/c1cc2ccccc2[nH]1 as the compound, how does the EC50 read?
Answer: 31.6 µM

Question: How did the EC50 turn out when O=C(Cc1c[nH]c2ccccc12)N/N=C/c1ccccc1O was run?
Answer: 16.2 µM

Question: With COc1cccc(Cn2cnc3c(NS(=O)(=O)c4cccc(Cl)c4Cl)c(C)c(C)cc32)c1 as the compound, how does the EC50 read?
Answer: 40.4 µM

Question: CCCCCCCCOC(=O)C1=C(C)Nc2nnnn2C1c1cccs1 (stereo not drawn) was tested. Which EC50 did it give?
Answer: 21.8 µM

Question: Which EC50 does the source give for CC1(C)SC(=S)N(NC(=O)Nc2ccccc2)C1N(O)C(=O)Nc1ccccc1 (stereo not drawn) here?
Answer: 37.8 µM

Question: c1ccc(Nc2cc(Nc3ccccc3)[nH]n2)cc1 was tested. Which EC50 did it give?
Answer: 23.7 µM

Question: For COC(=O)C(C)NC(=S)N1CCN(c2c(F)cc3c(=O)c(C(=O)O)cn(C4CC4)c3c2OC)CC1C (stereo not drawn), which EC50 is on record?
Answer: 20 µM

Question: NC1=NC[C@H](Cc2ccc(O)cc2)N1CCC12CC3CC(CC(C3)C1)C2 was tested. Which EC50 did it give?
Answer: 10.6 µM

Question: For CCCCOc1ccc(CSC(=N)N)cc1[N+](=O)[O-], which EC50 is on record?
Answer: 16.5 µM

Question: Which EC50 does the source give for NC(=NCCc1c[nH]c2ccccc12)NC(=O)c1ccc(F)cc1 here?
Answer: 36.4 µM

Question: CCC(C)(C)c1ccc(OCCCC[n+]2ccccc2)c(C(C)(C)CC)c1 was tested. Which EC50 did it give?
Answer: 1.2 µM
